Measurements taken from patent publication US20230002352A1, “SULFONAMIDE DERIVATIVES AS CTPS1 INHIBITORS” (Step Pharma S.A.S., priority 2019, published 2023).

Target: T1, human CTPS1 (Homo sapiens, UniProt P17812)
T1 construct: purchased Proteros biostructures GmbH
T1 sequence (P17812 1-591): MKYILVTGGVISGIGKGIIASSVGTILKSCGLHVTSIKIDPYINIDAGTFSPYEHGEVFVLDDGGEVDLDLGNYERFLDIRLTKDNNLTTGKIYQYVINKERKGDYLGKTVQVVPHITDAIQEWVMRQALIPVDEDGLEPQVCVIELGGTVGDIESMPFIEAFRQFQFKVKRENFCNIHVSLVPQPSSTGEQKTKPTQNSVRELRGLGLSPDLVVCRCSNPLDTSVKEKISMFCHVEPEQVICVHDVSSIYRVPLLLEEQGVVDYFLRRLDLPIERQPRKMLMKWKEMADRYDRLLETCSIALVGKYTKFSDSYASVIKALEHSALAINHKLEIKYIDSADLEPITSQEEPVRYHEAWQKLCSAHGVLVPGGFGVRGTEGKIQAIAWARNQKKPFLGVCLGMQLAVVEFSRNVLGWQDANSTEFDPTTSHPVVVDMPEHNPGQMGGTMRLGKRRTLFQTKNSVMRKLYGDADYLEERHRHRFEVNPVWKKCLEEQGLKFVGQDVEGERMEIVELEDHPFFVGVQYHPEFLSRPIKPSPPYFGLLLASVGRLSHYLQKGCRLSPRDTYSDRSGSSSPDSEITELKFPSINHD
Experiment: Human CTPS1 enzyme inhibition (ADP-Glo Max assay)
Format: biochemical
Settings: Table 23; ADP-Glo Max assay; read-out: CTPS1 (Human CTPS1 Enzyme Inhibition data grouped by potency range, IC50)
Description: Biological Example 1—Human CTPS1 Enzyme Inhibition
The enzyme inhibitory activities of compounds invented against the target of interest were determined using the ADP-Glo™ Max assay (Promega, UK). Assays for human CTPS1 were performed in 1× assay buffer containing 50 mM Tris, 10 mM MgCl2, 0.01% Tween-20, pH to 8.0 accordingly. Finally, immediately before use, L-cysteine was added to the 1× assay buffer to a final concentration of 2 mM. All reagents are from Sigma-Aldrich unless specified otherwise. Human full length active C-terminal FLAG-Hiss-tag CTPS1 (UniProtKB-P17812, CTPS[1-591]-[…]) was obtained from Proteros biostructures GmbH.
3× human CTPS1 protein was prepared in 1× assay buffer to the final working protein concentration required for the reaction. A 2 uL volume per well of 3× human CTPS1 protein was mixed with 2 uL per well of 3× test compound (compound prepared in 1× assay buffer to an appropriate final 3× compound concentration respective to the concentration response curve designed for the compounds under test) for 10 minutes at 25° C. The enzymatic reaction was then initiated by addition of a 2 uL per well volume of a pre-mixed substrate mix (UltraPure ATP from ADP-Glo™ Max kit (0.31 mM), GTP (0.034 mM), UTP (0.48 mM) and L-glutamine (0.186 mM)) and the mixture was incubated for an appropriate amount of time within the determined linear phase of the reaction at 25° C. under sealed plate conditions with constant agitation at 500 revolutions per minute (rpm). ADP-Glo™ Max reagent was added for 60 minutes (6 μL per well) and subsequently ADP-Glo™ Max development reagent was added for 60 minutes (12 uL per well) prior to signal detection in a microplate reader (EnVision® Multilabel Reader, Perkin Elmer). Following each reagent addition over the course of the assay, assay plates were pulse centrifuged for 30 seconds at 500 rpm.
In all cases, the enzyme converts ATP to ADP and the ADP-Glo™ Max reagent subsequently depletes any remaining endogenous ATP in the reaction system. The ADP-Glo™ Max detection reagent converts the ADP that has been enzymatically produced back into ATP and using ATP as a substrate together with luciferin for the enzyme luciferase, light is generated which produces a detectable luminescence. […] The percentage inhibition produced by each concentration of compound was calculated using the equation shown below: […]
Percentage inhibition was then plotted against compound concentration, and the 50% inhibitory concentration (IC50) was determined from the resultant concentration-response curve.

| IC50 [nM] | SMILES |
| --- | --- |
| 1000 to 10000 | CC(C)(C(=O)Nc1ccc(-c2cnccn2)cc1F)c1ccnc(NS(=O)(=O)C2CC2)n1 [Example P42] |
| 1000 to 10000 | O=C(Cc1cccc(NS(=O)(=O)C2CC2)n1)Nc1ccc(-c2cnccn2)cc1 [Example P174] |
| ≤ 100 | COc1cncc(-c2ccc(NC(=O)C(C)(C)c3ccnc(NS(=O)(=O)C4CC4)n3)cc2)n1 [Example P3, 2-(2-(cyclopropanesulfonamido)pyrimidin-4-yl)-N-(4-(6-methoxypyrazin-2-yl)phenyl)-2-methylpropanamide] |
| 100 to 1000 | CCOc1cncc(-c2ccc(NC(=O)C(C)(C)c3cc(C(F)(F)F)nc(NS(=O)(=O)C4CC4)n3)c(F)c2)n1 [Example P130] |
| ≤ 100 | CCC(F)(C(=O)Nc1ccc(-c2cncc(C3CC3)n2)cn1)c1ccnc(NS(=O)(=O)C2CC2)n1 (centres unmarked) [Example P150] |
| 1000 to 10000 | CC(C)(C(=O)Nc1ccc(-c2cccc(C(F)(F)F)c2)cc1)c1ccnc(NS(=O)(=O)C2CC2)n1 [Example P60] |
| 1000 to 10000 | CC(C)(C(=O)Nc1ccc(-c2cncc(C(F)(F)F)n2)cc1)c1cccc(NS(=O)(=O)C2CC2)n1 [Example P181] |
| 100 to 1000 | Cc1cncc(-c2ccc(NC(=O)C(C)(C)c3ccnc(NS(=O)(=O)C4CC4)n3)cc2)c1 [Example P54] |
| 1000 to 10000 | CCS(=O)(=O)Nc1cncc(CC(=O)Nc2ccc(-c3cccnc3)cc2)n1 [Example P193] |
| 100 to 1000 | C=C(C)c1cncc(-c2ccc(NC(=O)C(C)(C)c3ccnc(NS(=O)(=O)C4CC4)n3)cc2)n1 [Example P131] |
| 100 to 1000 | CCOc1cncc(-c2ccc(NC(=O)C3(c4ccnc(NS(=O)(=O)C5CC5)n4)CN(C(=O)OC(C)(C)C)C3)nc2)n1 [Example P141] |
| ≤ 100 | CCOc1cncc(-c2ccc(C(=O)NC(CC)c3cncc(NS(=O)(=O)C4CC4)n3)c(F)c2)n1 (single isomer, unassigned) [Example P225] |
| ≤ 100 | CCOc1cncc(-c2ccc(NC(=O)C3(c4cccc(NS(=O)(=O)C5CC5)n4)CCOCC3)nc2)n1 [Example P186] |
| 100 to 1000 | CC(C)(C(=O)Nc1ccc(-c2cncc(Cl)c2)cc1)c1ccnc(NS(=O)(=O)C2CC2)n1 [Example P51] |
| ≤ 100 | COc1cncc(-c2ccc(NC(=O)Cc3cccc(NS(=O)(=O)C4CC4)n3)cc2)n1 [Example P173] |
| 1000 to 10000 | CC(C)(C(=O)Nc1ccc(-c2cnccn2)cc1F)c1cccc(NS(=O)(=O)C2CC2)n1 [Example P180] |
| 100 to 1000 | CCOc1cncc(-c2cc(F)c(NC(=O)C(C)(C)c3ccnc(NS(=O)(=O)C4CC4)n3)cc2C)n1 [Example P40] |
| 100 to 1000 | CC(C)Oc1cncc(-c2ccc(NC(=O)C(C)(C)c3ccnc(NS(C)(=O)=O)n3)c(F)c2)n1 [Example P78] |
| 100 to 1000 | CCOc1cncc(-c2ccc(NC(=O)C(C)(C)c3ccnc(NS(=O)(=O)C4(C)CC4)n3)cc2)n1 [Example P69] |
| 1000 to 10000 | CC(C)Oc1cncc(-c2ccc(NC(=O)C(C)(C)c3ccnc(NS(C)(=O)=O)n3)c(F)c2)c1 [Example P77] |
| ≤ 100 | CCOc1cncc(-c2ccc(NC(=O)C(C)(C)c3ccnc(NS(=O)(=O)C4CC4)n3)c(OC(F)(F)F)c2)n1 [Example P47] |
| 1000 to 10000 | Cc1cncc(-c2ccc(NC(=O)C(C)(C)c3ccnc(NS(C)(=O)=O)n3)c(C)c2)n1 [Example P5, 2-Methyl-N-(2-methyl-4-(6-methylpyrazin-2-yl)phenyl)-2-(2-(methylsulfonamido)pyrimidin-4-yl)propanamide] |
| ≤ 100 | CCOc1cncc(-c2ccc(NC(=O)C3(c4ccnc(NS(=O)(=O)C5CC5)n4)CCOCC3)cc2)n1 [Example P137] |
| ≤ 100 | CCOc1cncc(-c2ccc(NC(=O)C(F)(CC)c3ccnc(NS(C)(=O)=O)n3)nc2)n1 (single isomer, unassigned) [Example P165] |
| 100 to 1000 | CCOc1cncc(-c2ccc(NC(=O)C(C)(C)c3ccnc(NS(=O)(=O)C4CCC4)n3)nc2)n1 [Example P22] |
| ≤ 100 | CCOc1cncc(-c2ccc(NC(=O)C(F)(c3ccnc(NS(=O)(=O)C4CC4)n3)C(C)C)nc2)n1 (centres unmarked) [Example P152] |
